These results are taken from PMC9506633, “Design, synthesis, anti-proliferative evaluation, docking, and MD simulations studies of new thiazolidine-2,4-diones targeting VEGFR-2 and apoptosis pathway” (PLoS ONE, 2022).

Structures are written as SMILES. “Also recorded” adds a separate entry of the source.

Data set [1] deals with A549. As to the kind of experiment: MTT anti-proliferative assay, A549. It counts as cell-based. As for the experimental part:
(§1) The cytotoxicity effects of the synthesized candidates were evaluated against A549, Caco-2, HepG2, and MDA-mb-231 cell lines. MTT assay method was applied using the sub-IC50 concentrations of each compound as the treatment dose. Doxorubicin was used as a reference molecule. […] Also, it was noticed that Caco-2 was the most sensitive cell line.
(§2) The synthesized compounds were evaluated for their anti-proliferative activities against A549, Caco-2, HepG2, and MDA-mb-231 cell lines using the MTT assay protocol as described in S.1.2. Section in S1 File.
(§3) Mammalian cell lines culture
(§4) CaCo-2, and A549 cell lines were cultured on DMEM media, meanwhile MDA-MB-231 and hepG-2 cell line were cultured on RBMI media. The cultured media were supplemented with 200 mM L-glutamine, 10.0% fetal bovine serum (Lonza), and 1.0% penicillin/streptomycin. Cells were seeded into 25.0 cm tissue culture flasks and incubated at 37 ◦C in a 5.0% CO 2 incubator for 24 h or till confluency.
(§5) The safety profiles of the tested compounds were checked on one non-cancerous cell line (Vero) to […]
(§6) of 100.0 µl of 6×10^4 cell/ml cells was seeded in to each well of a 96-well plate and then the plates were incubated at 37 °C in a humidified 5.0% CO2 incubator for 24 h. At the end of incubation period, the exhausted medium was replaced with 100.0 µl of different concentrations of the designated treatment (prepared in RPMI medium starting from 1.0 mM). The inoculated plates were incubated at the same growth conditions for another 24 h. At the end of incubation, cellular viability was assessed using MTS assay kit (Promega) according to the manual instruction.
(§7) S.1.2. In-vitro anticancer activity
(§8) Anticancer activities of the tested compounds against CaCo-2, MDA-MB-231, and hepG-2 cell lines were quantified using MTS assay kit (Promega) as described by the Manufacturer. […]
Background: Formazan colour is commonly taken as a measure of viable cells.

Data set [2] can be described thus: MTT anti-proliferative assay, Caco-2. Particulars: African green monkey (Vero); human (Caco-2); SI = Cytotoxicity against Vero cells / Cytotoxicity against Caco-2 cell line; read-out: Selectivity index (Caco-2). The data set is classed as cell-based. As for the experimental part: as §1, §2, §3, §4, §5, §6, §7, §8
Data set [3] deals with Caco-2. As to the kind of experiment: MTT anti-proliferative assay, Caco-2. Particulars: Homo sapiens; Caco-2 cell line, MTT; read-out: Anti-proliferative activity (IC50 μM) Caco2. The data set is classed as cell-based. The method, then: as §1, §2, §3, §4, §5, §6, §7, §8
The subject of data set [4] is HepG2. Put plainly: MTT anti-proliferative assay, HepG2. It counts as cell-based. The method, then:
as §1, §2, §3, §4, §5, §6, §7, §8

The test system of data set [5] is MDA-mb-231. Put plainly: MTT anti-proliferative assay, MDA-mb-231. It counts as cell-based. As for the experimental part:
as §1, §2, §3, §4, §5, §6, §7, §8

In data set [6] the target is T1, VEGFR-2 (Homo sapiens, UniProt P35968).
T1 construct: purchased
As to the kind of experiment: In vitro VEGFR-2 inhibition (VEGFR-2 ELISA kit). The data set is classed as biochemical. The method, then: Compounds 10a, b and 14a-c were evaluated for their VEGFR-2inhibitory activity.
VEGFR-2 ELISA kit was used in this test as described in S.1.3. Section in S1 File. […]
S.1.3. In vitro VEGFR-2 kinase assay
All the synthesized compounds were tested for its inhibitory activity against VEGFR-2. Human VEGFR-2 ELISA kit (Enzyme-Linked Immunosorbent Assay) was utilized in this test. At first, specific antibody for VEGFR-2 was seeded on a 96-well plate and 100 μL of the standard solution or the tested compound was added, all were incubated at room temperature for 2.5 h. Then washed, 100 μL of the prepared biotin antibody was added, then incubated at room temperature for additional 1 h. and washed. Then, 100 μL of streptavidin solution was added and incubated for 45 min. at room temperature. Washed again, 100 μL of TMB Substrate reagent was added and incubated for 30 min. at room temperature. 50 μL of the stop solution was added, then read at 450 nm immediately. The standard curve was drawn, concentrations on the X-axis and the absorbance

Data set [7] is described as follows: Safety assay: cytotoxicity against Vero non-cancer cell line. It counts as cell-based. Particulars: African green monkey, Vero cells (non-cancer cell line); Vero normal cell line. The method, then: In this work, the safety pattern of the synthesized derivatives 10a, b and 14a-c was also evaluated by testing their in vitro cytotoxicity against Vero non-cancer cell line using the MTT assay protocol.
Section in S1 File.
Mammalian cell lines culture […]
The cultured media were supplemented with 200 mM L-glutamine, 10.0% fetal bovine serum (Lonza), and 1.0% penicillin/streptomycin. Cells were seeded into 25.0 cm tissue culture flasks and incubated at 37 ◦C in a 5.0% CO 2 incubator for 24 h or till confluency.
as §5
of 100.0 µl of 6×10^4 cell/ml cells was seeded in to each well of a 96-well plate and then the plates were incubated at 37 °C in a humidified 5.0% CO2 incubator for 24 h. At the end of incubation period, the exhausted medium was replaced with 100.0 µl of different concentrations of the designated treatment (prepared in RPMI medium starting from 1.0 mM). The inoculated plates were incubated at the same growth conditions for another 24 h. At the end of incubation, cellular viability was assessed using MTS assay kit (Promega) according to the manual instruction. […]

In data set [8] the test system is Caco-2 cells. As to the kind of experiment: In vitro scratch (wound healing, migration) assay. The data set is classed as cell-based. Particulars: Caco-2, 1 μM. As for the experimental part: The in vitro scratch assay[38] was used to assess the prospective of compound 14a to inhibit the ability of Caco-2 cells to migrate and heal. The basic idea behind this test is to create a scratch in a cancer cell line monolayer, measure the diameter at the start time and at regular intervals to investigate the potential of the cancer cell to migrate and heal. The findings of the treated cell line are then compared to the untreated cell line.
Cell Migration assay was conducted according to the reported protocol as described [59]in S.1.5. Section in S1 File.
S.1.4. Selectivity index (SI)
The selectivity index values of the tested compounds on cancer cells were calculated as described by Koch et al., with slight modifications; SI=IC50nc/IC50cc, where IC50nc: the IC50 value of the tested compound on normal cells and IC 50cc: IC50 of the tested compound on cancer cell line .
S.1.5. Wound healing assay (Migration assay)
CaCo-2 cells were grown to 95.0% confluency in a complete DMEM medium and then the wounds were formed using a plastic tip. […] After incubation at 37°C and 5.0% CO2 for 24h, the cells were washed with PBS and the wounds distance was determined as the scratch width of the treated and untreated groups using […]
S.1.6. […] The RTq-PCR was done using SYBR Green dye (QuantiTect SYBR Green PCR Kits) and Light Cycler fluorimeter (Bio-RAD S1000 Tm thermal cycler). […]

Data set [9] relates to Bcl-2. As to the kind of experiment: RT-qPCR gene expression in Caco-2, Bcl-2. The data set is classed as cell-based. Particulars: Caco-2, 1.5 μM, compared to control cells. From the text: (§9) The molecular anticancer mode of action of 14a was investigated by screening their ability to control the gene expression levels of Bcl2, Bcl-xl, TGF and Survivin genes as reported in S.1.6. Section in S1 File.
(§10) S.1.4. Selectivity index (SI) […]
(§11) S.1.6. Gene expression pattern alt ernation of cancer cell after 1 4a treatment The molecular anticancer mode of action of 14a was investigated by screening their ability to affect the gene expression levels of Bcl2, Bcl -xl, TGF and Survivin genes using specific forward and reverse primers and RTq-PCR technique (Table 1) in CaCo-2 cells (chosen as the most sensitive cancer cell line). After cellular treatment, CaCo-2 cell line was cultured into 12 well plates (6×10^3 cell/ml) for 24 h. with the sub-IC50 concentration of 14a. After treatment, total RNA extraction was performed using RNA extraction kit (Qiagen, Germany). Then, 1 ug of the obtained RNA was used to synthesiz cDNA using cDNA synthesis kit (Promega Corp., Madison, WI) as recommended by the manufacturer. Simultaneously, GAPDH forward and reverse primers (Table 1) were used to amplify the house keeping gene as internal control for standardization of PCR products. The RTq-PCR was done using SYBR Green dye (QuantiTect SYBR Green PCR Kits) and Light Cycler fluorimeter (Bio-RAD S1000 Tm thermal cycler). […]
On the technique in general: In qPCR the cycle at which signal appears reflects the starting amount.

In data set [10] the test system is Bcl-xl. As to the kind of experiment: RT-qPCR gene expression in Caco-2, Bcl-xl. It counts as cell-based. Particulars: Caco-2, 1.5 μM, compared to control cells.
Source text: as §9, §10, §11

Data set [11] concerns Survivin. As to the kind of experiment: RT-qPCR gene expression in Caco-2, Survivin. Particulars: Caco-2, 1.5 μM, compared to control cells. It counts as cell-based.
Source text: as §9, §10, §11

Data set [12] concerns TGF. As to the kind of experiment: RT-qPCR gene expression in Caco-2, TGF. It counts as cell-based. As to conditions: Caco-2, 1.5 μM, compared to control cells.
Source text: as §9, §10, §11

Where [13] appears, read: dose-response curve fit, raw data S.5.

T1 sequence (P35968 20-1356): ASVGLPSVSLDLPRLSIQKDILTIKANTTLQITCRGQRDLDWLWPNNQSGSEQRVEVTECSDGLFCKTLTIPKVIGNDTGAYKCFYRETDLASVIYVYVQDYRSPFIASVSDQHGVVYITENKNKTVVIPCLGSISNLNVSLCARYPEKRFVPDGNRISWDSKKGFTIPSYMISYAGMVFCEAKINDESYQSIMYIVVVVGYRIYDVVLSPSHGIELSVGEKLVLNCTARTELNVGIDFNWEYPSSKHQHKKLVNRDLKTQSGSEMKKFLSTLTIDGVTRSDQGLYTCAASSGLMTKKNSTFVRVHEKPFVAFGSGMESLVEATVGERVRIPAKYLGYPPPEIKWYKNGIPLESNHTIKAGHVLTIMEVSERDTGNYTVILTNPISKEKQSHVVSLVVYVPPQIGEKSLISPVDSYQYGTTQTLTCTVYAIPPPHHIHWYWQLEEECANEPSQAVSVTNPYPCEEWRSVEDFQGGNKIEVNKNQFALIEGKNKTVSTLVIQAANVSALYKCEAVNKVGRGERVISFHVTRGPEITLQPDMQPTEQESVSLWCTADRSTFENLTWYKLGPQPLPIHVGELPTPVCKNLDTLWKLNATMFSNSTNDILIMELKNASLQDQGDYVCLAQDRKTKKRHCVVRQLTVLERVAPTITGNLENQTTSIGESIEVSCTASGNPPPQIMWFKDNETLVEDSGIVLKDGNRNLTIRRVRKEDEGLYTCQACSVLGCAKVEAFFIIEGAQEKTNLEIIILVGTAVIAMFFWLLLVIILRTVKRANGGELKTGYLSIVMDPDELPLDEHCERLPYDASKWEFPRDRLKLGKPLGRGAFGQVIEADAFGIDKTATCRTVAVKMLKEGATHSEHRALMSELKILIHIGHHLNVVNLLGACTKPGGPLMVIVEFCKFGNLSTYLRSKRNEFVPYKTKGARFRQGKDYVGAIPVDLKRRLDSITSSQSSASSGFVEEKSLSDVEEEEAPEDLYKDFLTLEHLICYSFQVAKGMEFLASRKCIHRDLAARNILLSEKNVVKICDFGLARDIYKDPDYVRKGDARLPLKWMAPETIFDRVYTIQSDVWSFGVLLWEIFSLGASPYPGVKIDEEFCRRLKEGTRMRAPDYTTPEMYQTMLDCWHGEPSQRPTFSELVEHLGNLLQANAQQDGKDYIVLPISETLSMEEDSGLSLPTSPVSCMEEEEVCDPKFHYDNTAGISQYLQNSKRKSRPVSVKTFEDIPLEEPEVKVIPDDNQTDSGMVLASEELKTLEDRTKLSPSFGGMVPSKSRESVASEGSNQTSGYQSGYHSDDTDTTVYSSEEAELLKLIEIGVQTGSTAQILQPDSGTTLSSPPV

As for `O=C(CN1C(=O)SC(=C2C(=O)Nc3ccccc32)C1=O)Nc1ccc(Cl)cc1` [Compound 14a, N-(4-Chlorophenyl)-2-(2,4-dioxo-5-(2-oxoindolin-3-ylidene)thiazolidin-3-yl)acetamide], the 50% inhibitory concentration (IC50) is 170 ± 14.5 µM in [1] (Homo sapiens, A549 cell line, MTT); 1.5 ± 0.08 µM in data set [3]; 31.5 ± 2.5 µM in data set [4] (Homo sapiens, HepG2 cell line, MTT); 84 ± 7.3 µM in data set [5] (Homo sapiens, MDA-mb-231 cell line, MTT); 0.0915 ± 0.0082 µM in [6] (ELISA kit). For the same compound, the “Selectivity index (A549)” value in data set [1] (SI = Cytotoxicity against Vero cells / Cytotoxicity against A549 cell line) stood at 1.704. Moreover, the selectivity ratio in data set [2] is 212. The “Selectivity index (HepG2)” value in data set [4] (SI = Cytotoxicity against Vero cells / Cytotoxicity against HepG2 cell line) was 9.196. Also, the “Selectivity index (MDA-MB-231)” value in data set [5] (SI = Cytotoxicity against Vero cells / Cytotoxicity against MDA-MB-231 cell line) was 3.375. For the same compound, the “HillSlope (best-fit value)” value in [6] (setting [13]) was -0.4675. The “LogIC50 (best-fit value)” value in [6] (setting [13]) is on record as 1.961 Log (nM). The compound further yielded an IC50 at 24 h in data set [7] of 290 ± 28.3 µM. In addition, the “Inhibition of migration and healing of Caco-2 cells” value in [8] (24 h) was “inhibit the migration and healing of Caco-2 cells in a significant manner; also recorded: significantly inhibited the ability of cancer cells to migrate and heal”. In addition, the “Width of the scratch” value in data set [8] (after 24 h, control scratch width at 0 hr 0.356 mm) was 0.293 mm. The “Bcl-2 gene expression level” value in data set [9] is given as “significant reduction; also recorded: significant down-regulation; also recorded: downregulate”. Further, the “Bcl-xl gene expression level” value in [10] is given as “non-detectable change”. In addition, in [11], the “Survivin gene expression level” value is on record as “significant reduction; also recorded: significant down-regulation; also recorded: downregulate”. Also, the “TGF gene expression level” value in data set [12] is given as “significant reduction; also recorded: significant down-regulation; also recorded: downregulate”.

In general, IC50 refers to the concentration that gives 50% inhibition.
